These results are taken from PubChem BioAssay (NCI).

Assay in all cases: growth of human tumour cells (NCI), 48 h
Assay [1] has as its system K-562 leukemia.
Assay [2] has as its system COLO 205 colon.
The test system of assay [3] is HOP-62 NSCLC.
In assay [4] the test system is 786-0 renal.
Assay [5] relates to RXF 393 renal.
Assay [6] has as its system MALME-3M melanoma.
Assay [7] deals with M14 melanoma.
Assay [8] relates to U251 CNS.
Assay [9] concerns HT29 colon.
Assay [10] has as its system HCT-116 colon.
Assay [11] relates to EKVX NSCLC.
Assay [12] has as its system SK-MEL-28 melanoma.
Assay [13] concerns SF-539 CNS.
The subject of assay [14] is OVCAR-3 ovarian.
Assay [15] relates to SF-268 CNS.
In assay [16] the test system is MDA-N.
Assay [17] relates to SW-620 colon.

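Five compound concentrations were applied to cells in 96-well plates for 48 hours; endpoints were derived by simple linear interpolation of the resulting dose-response curve. TGI denotes the concentration required for complete inhibition of growth.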

For `CCN(CC)CCC1CCCCN1CC(=O)N1c2ccccc2NC(=O)c2ccccc21` (centres undefined), the TGI in assay [1], in assay [2], in assay [3], in assay [4], in assay [5] and in assay [6] was greater than 100 µM throughout. Moreover, the TGI in assay [7], in assay [8], in [9], in assay [10], in [11] and in assay [12] was greater than 100 µM throughout. The TGI in assay [13], in [14], in [15] and in [16] was greater than 100 µM each time.

For `CC(=O)OC1COC(n2nc(/C=C/c3ccc(Cl)cc3)c(=O)n(/N=C/c3ccccc3)c2=S)C(OC(C)=O)C1OC(C)=O` (centres undefined), the TGI in assay [1], in assay [2], in assay [3], in [17], in assay [4] and in assay [5] was greater than 100 µM each time. Moreover, the TGI in assay [6], in assay [7], in assay [8], in assay [9], in assay [10] and in [11] was greater than 100 µM in each case. Besides, the TGI in [12], in [13], in assay [14], in assay [15] and in [16] was greater than 100 µM throughout.

As for `CCCCn1cnnc1NS(=O)(=O)c1cc(C)c(Cl)cc1SCC(=O)O`, the TGI in assay [1], in assay [2], in [3], in assay [17], in assay [4] and in assay [5] was greater than 10 µM each time. For the same compound, the TGI in [6], in assay [7], in assay [8], in assay [9], in assay [10] and in assay [11] was greater than 10 µM in each case. Further, the TGI in assay [12], in [13], in assay [14], in [15] and in assay [16] was greater than 10 µM in each case.

With `Cc1nc2ccc(F)cc2c2c1CCO2`, the TGI in assay [1], in [2], in [17], in assay [4], in assay [5] and in assay [6] was greater than 100 µM throughout. For the same compound, the TGI in assay [7], in assay [8], in assay [9], in assay [10], in assay [11] and in assay [12] was greater than 100 µM throughout. Moreover, the TGI in [13], in [15] and in [16] was greater than 100 µM each time.

As to `C/C(=N\NC(=S)NC1CCCC1)c1ccccn1`, the TGI in assay [2] was 26.8 µM; in assay [3], greater than 81.9 µM; in assay [17], greater than 100 µM; in [4] it was greater than 100 µM; in assay [5], 29.1 µM; in assay [6], greater than 28.6 µM. In addition, the TGI was 15.7 µM in [7]; greater than 100 µM in assay [8]; greater than 100 µM in [9]; 3.48 µM in [10]; greater than 100 µM in assay [11]; greater than 100 µM in [12]. In addition, the TGI in assay [13] is 7.52 µM; in [14] it was 10.3 µM; in [15], greater than 100 µM; in assay [16], 35.4 µM.

`CCN(CCCN(CC)C(=O)Nc1ccccc1)C(=O)Nc1ccccc1`: the TGI in assay [1], in assay [2], in [3], in assay [17], in assay [4] and in [5] was greater than 100 µM throughout. The TGI in [6], in assay [7], in [8], in assay [9], in assay [10] and in assay [11] was greater than 100 µM in each case. Further, the TGI in [12], in assay [13], in assay [14] and in [16] was greater than 100 µM throughout.

As for `COc1ccc(N=Nc2ccc3oc(=O)c(C(=O)Nc4ccccc4)cc3c2)cc1`, the TGI in [2], in assay [3], in assay [17], in [4], in [5] and in [6] was greater than 10 µM throughout. Besides, the TGI in assay [7], in assay [8], in assay [9], in assay [10], in assay [11] and in [12] was greater than 10 µM throughout. Besides, the TGI in assay [13], in assay [14], in assay [15] and in [16] was greater than 10 µM in each case.

Regarding `O=C1CCCCC1=C(I)I`, the TGI in assay [1] came to 95.8 µM; in [2], 28.8 µM; in assay [3] it was 57.5 µM; in [17], 31.2 µM; in assay [4], 31.9 µM; in [5] it was 30.5 µM. The TGI was 27.5 µM in [6]; 32.3 µM in [7]; 30.2 µM in assay [8]; 30.9 µM in [10]; 4.1 µM in [11]; 31.8 µM in assay [12]. The TGI in [13] stood at 36.6 µM; in [14] it was 30.3 µM; in assay [15], 57.2 µM; in [16], 31.3 µM.
